The values that follow come from ChEMBL document CHEMBL1134016, “Different antagonist binding properties of human and rat histamine H3 receptors” (Bioorg Med Chem Lett, 2001).

The target in assay [1] is T1, Histamine H3 receptor (Rattus norvegicus, UniProt Q9QYN8). Description: biochemical. The format is cell-based, CHO-K1.
Description: Inhibition of [125I]iodoproxyfan from rat histamine H3 receptor expressed in CHO-K1 cells
The target in assay [2] is T2, Histamine H3 receptor (Homo sapiens, UniProt Q9Y5N1). Description: biochemical. It is filed as cell-based, CHO-K1.
Description: Inhibition of [125I]iodoproxyfan binding to human histamine H3 receptor of CHO-K1 cells
The target of assay [3] is T2, Histamine H3 receptor. In words: Ratio of binding affinity of rat histamine H3 receptor to that of human histamine H3 receptor;1:6.
Assay [4] has as its target T2, Histamine H3 receptor. In words: Ratio of binding affinity of rat histamine H3 receptor to that of human histamine H3 receptor;1:10.
Assay [5] addresses T2, Histamine H3 receptor. Description: Ratio of binding affinity of rat histamine H3 receptor to that of human histamine H3 receptor; 1:3.
In assay [6] the target is T2, Histamine H3 receptor. Description: Ratio of binding affinity of rat histamine H3 receptor to that of human histamine H3 receptor; 1:12.
For assay [7], the target named is T1, Histamine H3 receptor. Description: Binding affinity to rat Histamine H3 receptor in CHO-K1 cells using [125I]iodoproxyfan as radioligand. It is filed as cell-based.

Structures are written as SMILES.

T2 sequence (Q9Y5N1 whole entry): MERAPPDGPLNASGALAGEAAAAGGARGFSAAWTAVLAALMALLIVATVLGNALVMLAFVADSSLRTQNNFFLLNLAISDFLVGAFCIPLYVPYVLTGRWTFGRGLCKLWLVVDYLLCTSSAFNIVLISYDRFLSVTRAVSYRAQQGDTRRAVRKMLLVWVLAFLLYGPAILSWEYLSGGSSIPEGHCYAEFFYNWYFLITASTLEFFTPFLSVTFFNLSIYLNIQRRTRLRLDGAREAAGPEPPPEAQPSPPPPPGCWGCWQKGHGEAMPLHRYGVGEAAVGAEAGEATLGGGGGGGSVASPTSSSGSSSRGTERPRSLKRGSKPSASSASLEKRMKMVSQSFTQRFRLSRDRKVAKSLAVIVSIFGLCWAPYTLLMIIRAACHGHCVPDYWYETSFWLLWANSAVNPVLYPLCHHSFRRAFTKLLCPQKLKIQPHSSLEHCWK
T1 sequence (Q9QYN8 whole entry): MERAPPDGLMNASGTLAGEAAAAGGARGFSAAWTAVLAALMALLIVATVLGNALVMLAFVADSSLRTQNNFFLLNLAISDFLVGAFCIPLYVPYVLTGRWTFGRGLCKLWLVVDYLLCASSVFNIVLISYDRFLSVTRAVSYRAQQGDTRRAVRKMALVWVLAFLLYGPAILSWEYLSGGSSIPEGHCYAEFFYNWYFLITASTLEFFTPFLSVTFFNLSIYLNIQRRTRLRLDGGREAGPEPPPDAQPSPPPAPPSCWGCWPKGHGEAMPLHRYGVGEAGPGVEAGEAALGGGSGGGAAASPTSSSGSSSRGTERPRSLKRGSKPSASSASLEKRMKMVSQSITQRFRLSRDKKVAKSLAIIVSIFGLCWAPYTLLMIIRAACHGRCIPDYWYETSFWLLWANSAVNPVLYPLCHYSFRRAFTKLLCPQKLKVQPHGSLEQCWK

Take `CC(=O)c1ccc(OCCCCc2cnc[nH]2)cc1`: the Ki in assay [1] is 36 nM; in assay [2] it was 19 nM.

Regarding `CC(=O)c1ccc(SCCCc2c[nH]cn2)cc1`, the values for the Ki in assay [1] and in assay [2] were 44 nM and 18 nM, respectively.

Regarding `COc1ccc(OCCCc2c[nH]cn2)cc1`, the Ki in assay [1] was determined as 7.9 nM; in assay [2], 47 nM. Besides, the Ratio in assay [3] worked out at 6.

For the molecule `CC(=O)c1ccc(SCCc2c[nH]cn2)cc1`, the Ratio in assay [4] was 10.

Regarding `CC(=O)c1ccc(OCCc2cnc[nH]2)cc1`, the Ki in assay [1] came to 3.6 nM; in assay [2], 42 nM.

In the case of `c1ccc(COCCCc2c[nH]cn2)cc1` [PROXYFAN], the Ki was determined as 2.9 nM in assay [1] and 2.7 nM in assay [2].

Consider `CC(=O)c1ccc(OCCCc2c[nH]cn2)cc1`, for which the Ki in assay [1] amounted to 29 nM; in assay [2] it was 87 nM. For the same molecule, the Ratio in assay [5] turned out to be 3.

As to `CC(=O)c1ccc(OCCc2c[nH]cn2)cc1`, the Ratio in assay [6] stood at 12.

Regarding `CC(=O)c1ccc(SCCc2cnc[nH]2)cc1`, the Ki in assay [1] was 0.11 nM; in assay [2], 1.1 nM.

Molecule `O=C(c1ccc(OCCCc2cnc[nH]2)cc1)C1CC1` [CIPROXIFAN] had a Ki in assay [1] of 3.9 nM.

In the case of `c1ccc(OCCCc2c[nH]cn2)cc1`, affinity in assay [2] was put at a Ki of 27 nM.

As to `Ic1ccc(COCCCc2c[nH]cn2)cc1` [IODOPROXYFAN], the figures for the Ki in assay [1] and in assay [2] were 71 nM and 41 nM, respectively.

On to `S=C(NC1CCCCC1)N1CCC(c2cnc[nH]2)CC1` [THIOPERAMIDE], for which the Ki in assay [7] was 6.5 nM.
